The source made the active and inactive calls. No cut-off for these calls is given here.
What was measured:
[1] = molecular target: Delta-type opioid receptor (Rattus norvegicus, UniProt P33533); assay: Displacement of [3H]-deltorphin 2 from delta opioid receptor in rat GH3 cells after 60 mins by scintillation counting analysis; format: cell-based
[2] = molecular target: Delta-type opioid receptor (Mus musculus, UniProt P32300); assay: Agonist activity at delta opioid receptor in mouse vas deferens assessed as inhibition of electrically-stimulated muscle contraction
[3] = Agonist activity at delta opioid receptor in mouse/rat DRGF11 hybrid cells expressing GFP assessed as induction of ERK1/2 phosphorylation at 10^-9 to 10^-5 M after 5 mins by Western blotting analysis

Delta-type opioid receptor (Mus musculus, UniProt P32300), sequence (P32300 whole entry): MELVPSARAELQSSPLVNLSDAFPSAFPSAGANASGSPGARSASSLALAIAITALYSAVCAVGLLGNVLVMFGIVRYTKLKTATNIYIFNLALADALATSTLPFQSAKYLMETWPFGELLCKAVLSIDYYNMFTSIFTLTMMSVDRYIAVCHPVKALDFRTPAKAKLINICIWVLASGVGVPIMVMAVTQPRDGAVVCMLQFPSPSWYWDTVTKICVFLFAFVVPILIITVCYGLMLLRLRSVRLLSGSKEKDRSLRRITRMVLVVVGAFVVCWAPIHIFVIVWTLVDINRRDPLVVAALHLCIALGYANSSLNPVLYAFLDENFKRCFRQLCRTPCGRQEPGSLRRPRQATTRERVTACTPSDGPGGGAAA
Delta-type opioid receptor (Rattus norvegicus, UniProt P33533), sequence (P33533 whole entry): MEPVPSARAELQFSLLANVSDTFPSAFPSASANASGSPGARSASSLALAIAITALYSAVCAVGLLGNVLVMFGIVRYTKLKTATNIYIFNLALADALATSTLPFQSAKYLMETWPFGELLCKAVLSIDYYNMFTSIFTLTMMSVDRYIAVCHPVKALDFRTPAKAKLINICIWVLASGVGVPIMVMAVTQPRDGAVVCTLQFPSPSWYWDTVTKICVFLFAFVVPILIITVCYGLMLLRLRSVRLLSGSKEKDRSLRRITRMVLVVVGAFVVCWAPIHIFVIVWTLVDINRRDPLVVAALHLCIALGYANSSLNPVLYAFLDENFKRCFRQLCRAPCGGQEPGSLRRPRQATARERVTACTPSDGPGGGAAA

Compound | Ki [1] [nM] | EC50 [2] [nM] | Activity [3]
CC(C)C[C@H](NC(=O)[C@H](Cc1ccccc1)NC(=O)Cn1cc(CNC(=O)[C@@H](N)Cc2ccc(O)cc2)nn1)C(=O)O | > 1000 | > 1500 | 
CC(C)C[C@@H](C(=O)O)n1cc([C@H](Cc2ccccc2)NC(=O)CNC(=O)CNC(=O)[C@@H](N)Cc2ccc(O)cc2)nn1 | 89 | 830 | Active
CC(C)C[C@H](NC(=O)[C@H](Cc1ccccc1)NC(=O)CNC(=O)Cn1cc([C@@H](N)Cc2ccc(O)cc2)nn1)C(=O)O | > 1000 | > 1500 | 
CC(C)C[C@H](NC(=O)[C@H](Cc1ccccc1)n1cc(CNC(=O)CNC(=O)[C@@H](N)Cc2ccc(O)cc2)nn1)C(=O)O | 460 | > 1500 | 
